In brackets after ≈: the same amount, converted by molar mass.

This is an account of results in ChEMBL document CHEMBL1143737, “Synthesis and biological evaluation of conformationally constrained analogues of the antitubercular agent ethambutol” (2007).

For this assay, the system named is Mycobacterium tuberculosis. Nature of the assay: Antimycobacterial activity against Mycobacterium tuberculosis H37Rv after 6 days by colorimetric microassay. The assay is classed as functional. Conditions: 144 h.

Consider `CC[C@@H](CO)NCCN[C@@H](CC)CO` [ETHAMBUTOL], for which the MIC turned out to be 2 µg/mL (≈ 9.79 µM).
